Data published in US20150132813A1, “BIOSYNTHETIC PATHWAYS, RECOMBINANT CELLS, AND METHODS” (REGENTS OF THE UNIVERSITY OF MINNESOTA, priority 2012, published 2015).

Test system: α-ketoglutaric semialdehyde dehydrogenase KDHba
Assay: Enzymatic assay of KDHba (NADH absorbance at 340 nm)
Assay type: biochemical, Burkholderia ambifaria
[1] = substrate of KDHba, pH 8.0, 0.5 mM NAD+

Compound: CCCCC=O [Valeraldehyde, valeraldehyde]
- Km [1]: 31 µM
- kcat [1]: 8.69 ± 0.26 s⁻¹
- specificity constant (kcat/KM) of KDHba, fold higher than toward isobutyraldehyde (versus isobutyraldehyde): 1260 fold
- specificity constant (kcat/KM) of KDHba, fold higher than toward isovaleraldehyde (versus isovaleraldehyde): 308 fold
